Values quoted from earlier work as cited in patent US20060216365A1, “Aromatherapeutic environmental system” (priority 2000, published 2006).

What was measured:
[1] = mice, literature (Hikino et al 1980)
[2] = mice, literature (Hikino et al 1980); remark: listed apart in the source
monoamine oxidase = settings: literature (Truitt 1967)

Row | Molecule | inhibition of stress-induced ulcer formation [1] | prolongation of hexobarbital-induced sleep / enhancement of hexobarbital anesthesis [2] | monoamine oxidase inhibiting activity (monoamine oxidase)
1 | CC(=O)O[C@H]1C[C@@H]2C[C@H]3[C@@H]([C@H](OC(C)=O)C[C@H]3C)[C@]1(C)OC2(C)C [Kessyl glycol diacetate] | no inhibitory action | active principles | –
2 | C=CCc1cc(OC)c2c(c1)OCO2 [myristicin] | – | – | mild degree
3 | Kessyl glycol 2-acetate | – | active principles | –
4 | Kessyl glycol 8-acetate | – | active principles | –
